Laboratory results as given in US20210145983A1, “METHODS AND COMPOSITIONS OF INHIBITING CSF1R FOR TREATING ALLERGIC INFLAMMATION” (THE BOARD OF TRUSTEES OF THE UNIVERSITY OF ILLINOIS, priority 2018, published 2021).

Experiments:
[1] = tested on: acute DRA induced murine model of asthma; experiment: acute DRA induced murine model of asthma; assay type: in vivo, mouse; conditions: 10 mg/kg intraperitoneally on day 10, 12 and 14
From the text: B. Experimental Design. DRA triple allergens were delivered via intranasal route as depicted.

IgE = conditions: cited from earlier work
Chain of IgE (P01854 1-426 limits assumed): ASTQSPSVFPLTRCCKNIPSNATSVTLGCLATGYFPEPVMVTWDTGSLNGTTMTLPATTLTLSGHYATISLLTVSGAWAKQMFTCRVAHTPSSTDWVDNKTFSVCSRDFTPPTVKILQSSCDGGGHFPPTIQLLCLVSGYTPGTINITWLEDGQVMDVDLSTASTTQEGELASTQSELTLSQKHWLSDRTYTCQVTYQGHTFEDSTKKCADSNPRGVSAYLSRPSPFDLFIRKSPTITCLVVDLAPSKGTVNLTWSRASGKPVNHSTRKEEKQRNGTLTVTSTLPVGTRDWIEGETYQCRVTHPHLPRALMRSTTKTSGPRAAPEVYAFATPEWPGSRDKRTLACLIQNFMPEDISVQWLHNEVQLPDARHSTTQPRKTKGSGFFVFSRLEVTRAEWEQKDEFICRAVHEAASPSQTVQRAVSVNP

Row | Compound | Th2 cytokine increase in BAL fluids [1] | allergic lung inflammation (lung pathology) [1] | eosinophil recruitment to BAL fluid [1] | serum IgE rise [1] | control of asthma exacerbations (IgE; inner city children already sensitized to cockroach, Busse W W, et al. 2011) | control of seasonal exacerbations (IgE; pre-seasonal treatment, poorly controlled asthmatics, Teach S J, et al. 2015)
1 | FC(F)(F)c1ccc(CNc2ccc(Cc3c[nH]c4ncc(Cl)cc34)cn2)cn1 [PLX3397, 5-((5-chloro-1H-pyrrolo[2,3-b]pyridin-3-yl)methyl)-N-((6-(trifluoromethyl)pyridin-3-yl)methyl)pyridin-2-amine] | attenuated | markedly reduced | blocked | attenuated |  | 
2 | omalizumab: a humanized monoclonal anti-IgE antibody |  |  |  |  | significant benefit | effective
